In US11607557B2, “Devices and systems for treating pain based on light therapy” (Arizona Board of Regents on Behalf of the University of …, priority 2016, dated 2023):
Entries after “also recorded” stand apart in the source; their conditions may differ.

How the values were obtained:
[1] = tested on: green LED-induced antinociception; test: Paw withdrawal latency (Hargreaves) after antagonists in green LED exposed naïve rats; format: in vivo, rat
Text: Pathogen-free, adult male and female Sprague-Dawley as well as male Long Evans rats (weight at testing 250-350 g; Harlan-Sprague-Dawley, Indianapolis, Ind.) were housed in a climate-controlled room on a 12-h light/dark cycle and were allowed to have food and water ad libitum. All procedures were approved by the University of Arizona Animal Care and Use Committee and conform to the guidelines for the use of laboratory animals of the National Institutes of Health (publication no, 80-23, 1966). All behavioral experiments were conducted by experimenters blinded to the treatment conditions.
All visible spectrum LED flex strips were purchased from ledsupply.com (VT, USA). The specification of the LED were: (i) #LS-AC60-6-BL, 472 nanometer wavelength (i.e., blue), 8 watts, 120 Volts, 120 degree beam angle; (ii) #LS-AC60-6-GR, 525 nanometer wavelength (i.e., green), 8 watts, 120 Volts, 120 degree beam angle; and (iii) #LS-AC60-66-WH, white, 9.6 watts, 120 Volts, 120 degree beam angle. LED strips were affixed to the outside of clear plastic cages that housed the rats so as to avoid the strips from being chewed. Rats were exposed to the various LED in these cages with full access to food and water in a dark room devoid of any other source of light. Following behavioral assessment, the rats were returned to their cages for additional LED exposure. At the end of daily testing, the rats were returned to their regular animal room where they were exposed to regular room light (regular florescent bulbs). A lux meter (Tondaj LX1010B, Amazon.com) was used to determine the illuminance and luminous emittance of the LED strips.
(§1) The method of Hargreaves et al. was used. Rats were acclimated within Plexiglas enclosures on a clear glass plate maintained at 30° C. A radiant heat source (high-intensity projector lamp) was focused onto the plantar surface of the hind paw. When the paw was withdrawn, a motion detector halted the stimulus and a timer. A maximal cutoff of 33.5 sec was used to prevent tissue damage.
For intrathecal drug administration, rats were chronically implanted with catheters as described by Yaksh and Rudy. Rats were anesthetized with isoflurane and placed in a stereotactic device. The occipital muscles were separated from their occipital insertion and retracted caudally to expose the cisternal membrane at the base of the skull. Polyethylene tubing was passed caudally from the cisterna magna to the level of the lumbar enlargement. Animals were allowed to recover and were examined for evidence of neurologic injury. Animals with evidence of neuromuscular deficits were excluded.
The antinociceptive effects of green LED indicates a possible involvement of endogenous mediators linked to pain, such as opioids and cannabinoids. To test this hypothesis naïve rats exposed to green LED for eight hours daily for five days were administered antagonists and then PWLs were measured 20-30 minutes later.
Thus, to elucidate the role of die adrenergic system, several adrenergic receptors antagonists were tested. […] Additionally, rats exposed to green LED maintained regular grooming behaviors, which is in contrast to diminished grooming observed in stressed rats.

[2] = calcium indicator, λex 340, 380 nm; cited from earlier work
[3] = tested on: rostral ventromedial medulla (RVM); test: Lidocaine microinjection into the RVM, paw withdrawal latency in green LED exposed rats; format: in vivo, rat; settings: 2% lidocaine microinjected into the RVM of naïve rats exposed to green LED
Experimental: as §1
Rats received a bilateral guide cannula (26 GA, #C235-1.2 mm, Plastics One Inc.) directed to the RVM. The cannula was placed at: −11.0 from bregma, −7.5 mm from the dura and 0.6 mm on either side of the midline. Injections were made by expelling 0.5 μl through an injection cannula protruding 1 mm beyond the tip of the guide. Cannula placement was confirmed with 0.5 μl Evans Blue injected into both sides of the cannula and microscopic examination of medullary sections. Acute single injections into the RVM were performed by inserting an injector (Plastics One Inc) attached to a 2 μl Hamilton syringe and expelling 0.5 μl at the same coordinates.
Neurons within the rostral ventromedial medulla (RVM) have been reported to project to the spinal or medullary dorsal horns to directly or indirectly enhance or diminish nociceptive traffic. As this descending modulatory circuit is “opioid-sensitive”, next the contribution of the RVM in the green LED-induced antinociceptive response was examined.

[4] = tested on: rats; test: HIV sensory neuropathy model, thermal hyperalgesia (Hargreaves test); format: in vivo, rat; settings: intrathecal gp120, 300 ng
Experimental: as §1
(§2) Thermal hyperalgesia and mechanical allodynia are produced by intrathecal administration of the human immunodeficiency virus-1 (HIV-1) envelope glycoprotein, gp120 [60]. Seven days after implantation of an intrathecal catheter, baseline behavioral measurements were obtained and then rats were randomly assigned to two groups. On days 10 and 13, one group of rats were injected i.t. with 300 ng gp120 in a final volume of 20 µl in 0.9% saline while the other group were injected in a similar fashion with 0.9% saline.

[5] = tested on: rats; test: HIV sensory neuropathy model, mechanical allodynia (von Frey test); format: in vivo, rat; settings: intrathecal gp120, 300 ng, compared to pre-gp120 baseline
Experimental: The assessment of tactile allodynia (i.e., a decreased threshold to paw withdrawal after probing with normally innocuous mechanical stimuli) consisted of testing the withdrawal threshold of the paw in response to probing with a series of calibrated fine (von Frey) filaments. Each filament was applied perpendicularly to the plantar surface of the paw of rats held in suspended wire mesh cages. Withdrawal threshold was determined by sequentially increasing and decreasing the stimulus strength (the “up and down” method), and data were analyzed with the nonparametric method of Dixon, as described by Chaplan et al and expressed as the mean withdrawal threshold.
as §2

[6] = cannabinoid receptor antagonists, systemic (i.p.) 1 mg/kg, green LED eight hours daily for five days, 1 mg/kg
[7] = intrathecal (i.t.), 20 μg, green LED eight hours daily for five days, PWL 20-30 minutes after antagonist
[8] = alpha- and beta-adrenergic receptor antagonists, i.p. (doses in Table 1), green LED exposed rats

Cc1c(C(=O)NN2CCCCC2)nn(-c2ccc(Cl)cc2Cl)c1-c1ccc(I)cc1 [AM251]
effect on green LED-induced antinociception (paw withdrawal latency) [1, 6]: reversed the green LED-induced antinociception; also recorded: reversed green LED-induced thermal analgesia

COc1ccc(C(=O)c2c(C)n(CCN3CCOCC3)c3cc(I)ccc23)cc1 [AM630]
effect on green LED-induced antinociception (paw withdrawal latency) [1, 6]: unaffected

CC(=O)OCOC(=O)CN(CC(=O)OCOC(C)=O)c1ccc(C)cc1OCCOc1cc2cc(-c3ncc(C(=O)OCOC(C)=O)o3)oc2cc1N(CC(=O)OCOC(C)=O)CC(=O)OCOC(C)=O [Fura-2AM]
Kd [2]: 25 µM

C=CCN1CC[C@]23c4c5ccc(O)c4O[C@H]2C(=O)CC[C@@]3(O)[C@H]1C5 [Naloxone]
effect on green LED-induced antinociception (paw withdrawal latency) [1, 7]: reversed, to baseline levels | effect on green LED-induced antinociception (paw withdrawal latency) ([1]; intrathecal (i.t.), 20 μg, green LED eight hours daily for five days, PWL 20-30 minutes after antagonist, listed as naloxone): reversed green LED-induced thermal analgesia | effect on green LED-induced antinociception (paw withdrawal latency) ([1]; naloxone systemic (printed subcutaneous / 20 mg/kg i.p.), green LED eight hours daily for five days, PWL 20-30 minutes after antagonist, 20 mg/kg): reversed, to baseline levels | effect on green LED-induced antinociception (paw withdrawal latency) ([1]; naloxone systemic (printed subcutaneous / 20 mg/kg i.p.), green LED eight hours daily for five days, PWL 20-30 minutes after antagonist, listed as naloxone, 20 mg/kg): reversed green LED-induced thermal analgesia

CC(COc1ccccc1)N(CCCl)Cc1ccccc1 (centres unmarked) [Phenoxybenzamine]
effect on green LED-induced antinociception (paw withdrawal latency) [1, 8]: failed to prevent or reverse the antinociceptive effect of green LED; also recorded: failed to reverse green LED-induced thermal analgesia

Cc1ccc(N(CC2=NCCN2)c2cccc(O)c2)cc1 [Phentolamine]
effect on green LED-induced antinociception (paw withdrawal latency) [1, 8]: failed to prevent or reverse the antinociceptive effect of green LED; also recorded: failed to reverse green LED-induced thermal analgesia

CCN(CC)CC(=O)Nc1c(C)cccc1C [lidocaine]
effect on green LED-induced antinociception (paw withdrawal latency) [3]: prevented the subsequent development of antinociception; also recorded: reversed green LED-induced thermal analgesia

CN1CC[C@]23c4c5ccc(O)c4O[C@H]2[C@@H](O)C=C[C@H]3[C@H]1C5 [morphine]
effect on green LED-induced antinociception (paw withdrawal latency) [1, 7]: reversed the antinociception

CC(C)NCC(O)COc1cccc2ccccc12 (centres unmarked) [propranolol]
effect on green LED-induced antinociception (paw withdrawal latency) [1, 8]: failed to prevent or reverse the antinociceptive effect of green LED; also recorded: failed to reverse green LED-induced thermal analgesia

gp120: viral envelope glycoprotein 120 of HIV-1, recombinant HIV-1 IIIB gp120, NIH AIDS Reagent Program
thermal hyperalgesia (paw withdrawal latency) [4]: produced a thermal hyperalgesia | mechanical allodynia (paw withdrawal threshold) [5]: lowered thresholds for paw withdrawals compared to baseline
